Measured values published in patent publication US20250025439A1, “DERIVATIVES OF NIFUROXAZIDE FOR USE IN THE TREATMENT OF MITOCHONDRIAL DISORDERS AND NEURODEGENERATIVE DISEASES” (priority 2021, published 2025).

Assays:
[1] = molecular target: T1, Calcium/calmodulin-dependent protein kinase type II subunit delta (CAMK2D) (Homo sapiens, UniProt Q13557); assay: Affinity chromatography with NFX-beads and mass spectrometry; format: binding; conditions: spectral counts, NFX coupled beads vs beads alone, human fibroblast extracts
T1 construct: Protein extracts from human fibroblasts were incubated with magnetic beads; endogenous in cells; host or cells: human fibroblast lysate
T1 sequence (Q13557 whole entry): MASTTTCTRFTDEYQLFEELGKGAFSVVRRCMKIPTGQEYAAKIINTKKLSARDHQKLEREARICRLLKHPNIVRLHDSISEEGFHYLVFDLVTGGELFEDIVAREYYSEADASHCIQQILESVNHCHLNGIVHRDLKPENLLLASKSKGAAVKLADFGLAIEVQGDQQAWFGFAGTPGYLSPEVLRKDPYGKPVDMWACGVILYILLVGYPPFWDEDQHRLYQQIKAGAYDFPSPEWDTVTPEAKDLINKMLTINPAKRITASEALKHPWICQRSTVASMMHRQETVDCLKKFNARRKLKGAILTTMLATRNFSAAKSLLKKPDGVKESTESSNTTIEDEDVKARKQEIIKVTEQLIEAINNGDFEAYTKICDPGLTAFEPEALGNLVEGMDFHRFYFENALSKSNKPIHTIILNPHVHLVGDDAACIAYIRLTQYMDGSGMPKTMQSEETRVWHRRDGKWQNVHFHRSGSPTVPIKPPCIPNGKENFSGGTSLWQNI
Experimental: (§1) Fibroblasts were trypsinized and washed with PBS 1× then incubated in lysis buffer on ice during 20 minutes (Lysis buffer: Tris-HCl pH 7.5 50 mM, EDTA 2 mM, Triton X-100 0.1% supplemented with anti-protease and anti-phosphatase (Complete-Mini™—Roche). After centrifugation 15 minutes, 13 000 rpm at 4° C., supernatant was conserved and the protein concentration was determined using the Pierce BCA assay kit (Thermo Fisher Scientific).
(§2) 10 μL of magnetic beads and NFX-beads were washed three times in Bead buffer before to be resuspended 100 μL of Bead buffer (Bead buffer: Tris-HCl pH 7.5 50 mM, NaCl 150 mM, Triton X-100 0.1%, supplemented with anti-protease and anti-phosphatase (Complete-Mini™—Roche)) thanks to a magnetic rack (DynaMag-2 Ref 12321D Life Technologies). 800 μg of proteins were mixed with 100 μL of diluted beads and the final volume was set to 800 μL with Bead buffer. The proteins and the beads were incubated 30 minutes with rotation in a cold room. Using a magnetic rack, the beads were separated from the protein extract and washed three time with Bead buffer before to be resuspended in 75 μL of Laemmli2X. Laemmli with beads was put 5 minutes at 95° C. to eluate the proteins and the beads were discarded using a magnetic rack. 35 μL of the eluted proteins were subjected to SDS-PAGE and silver coloration (ProteoSilver™ Silver Stain Kit—Sigma Aldrich). Bands of interest were extracted from the gel and subjected to mass spectrometry.
(§3) Mass spectrometric identification and quantification of the pulled down proteins were performed as previously described (Shrivastava et al., EMBO, 2019, 38:e99871). The raw data were cleaned using the following pathway. First, only the proteins found to interact with the NFX coupled beads in the three replicates were kept for further analysis. […] The final proteins were then classified based on the fold chance and the p-value.
(§4) Identification of the NFX intracellular targets is a crucial step in understanding its mechanisms of action and to be able to improve its efficiency on a rational basis. To purify NFX-binding proteins, affinity chromatography purification was performed using magnetic beads. Protein extracts from human fibroblasts were incubated with magnetic beads alone or to which NFX has been covalently coupled (Scheme 1). Eluted fractions were subjected to SDS-PAGE electrophoresis and silver staining (FIG. 9A). The pattern was clearly different between eluted proteins from NFX-beads compared to those eluted form beads alone with 13 bands either appeared or were of a higher intensity with the NFX-beads (FIG. 9B). Excised bands were subjected to proteolytic digestion and mass spectrometry.

[2] = molecular target: T2, RNA-splicing ligase RtcB homolog (RTCB) (Homo sapiens, UniProt Q9Y3I0); assay: as above; format: binding; conditions: spectral counts, NFX coupled beads vs beads alone, human fibroblast extracts
T2 construct: Protein extracts from human fibroblasts were incubated with magnetic beads; endogenous in cells; host or cells: human fibroblast lysate
T2 sequence (Q9Y3I0 1-505): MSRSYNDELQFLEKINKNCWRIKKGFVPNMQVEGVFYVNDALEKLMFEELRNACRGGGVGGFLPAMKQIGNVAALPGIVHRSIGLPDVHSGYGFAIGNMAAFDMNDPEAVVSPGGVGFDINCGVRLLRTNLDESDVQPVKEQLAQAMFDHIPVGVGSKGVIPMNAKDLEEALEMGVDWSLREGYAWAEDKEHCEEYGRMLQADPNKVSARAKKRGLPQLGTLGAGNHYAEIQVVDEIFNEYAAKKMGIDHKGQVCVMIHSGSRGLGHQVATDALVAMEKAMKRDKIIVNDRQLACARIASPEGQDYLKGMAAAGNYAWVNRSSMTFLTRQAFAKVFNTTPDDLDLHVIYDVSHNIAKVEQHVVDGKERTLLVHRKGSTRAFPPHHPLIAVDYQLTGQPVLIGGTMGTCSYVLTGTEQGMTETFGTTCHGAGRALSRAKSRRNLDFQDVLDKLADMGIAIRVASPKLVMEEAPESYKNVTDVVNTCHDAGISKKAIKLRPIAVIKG
Experimental: as §1, §2, §3, §4

[3] = test system: iPSC-derived motor neurons; assay: Caspase activity measurement (DEVDase) in iPSC-derived motor neurons; format: cell-based, human; conditions: glutamate 100 μM + NFX 0.5 μM
Experimental: iPSC clones were generated from human fibroblasts as previously described (Genin et al., Acta Neuropathol., 2019, 138, 123-145). Motor neurons were differentiated from iPSC using previously described and validated protocols with some modifications. Briefly, iPSC clones were detached by Accutase treatment to form small clusters. Cells were transferred in Neuronal basic medium (DMEM/F12 plus Neurobasal medium with N2 and B27 supplement without vitamin A) supplemented with 40 μM SB431542 (Tocris Bioscience), 0.2 μM LDN-193189 (Stemgent), 3 μM CHIR99021 (Tocris Bioscience), and 5 μM Y-27632 (Merck Millipore) to induce EB formation. From day 3 on, 0.1 μM retinoic acid (Sigma) and 500 nM SAG (Merck Millipore) were added to the neuronal basic medium and medium was changed every 2 days. From day 9 on, BDNF (10 ng/mL, Miltenyi Biotec) and GDNF (10 ng/ml, Miltenyi Biotec) and DAPT (20 μM, Tocris Bioscience) were added. On day 10, floating clusters were dissociated into single cells using 0.05% trypsin (Gibco™). […] Cells were treated either with 0.5 μM Staurosporine (Sigma) for 24 h or 50-100 μM glutamate (Sigma) for 48 h and caspase activation was analyzed by DEVDase activity measurement as previously described (Villa et al., 2017). […] Caspase activity was measured using a fluoroscan at 460 nm, and specific activity was expressed as the change in absorbance per minute per milligram protein.

Fold change [1]: 803.33
Fold change [2]: 40.98
sensitivity to glutamate-induced caspase activation ([3]; CHCHD10^S59L/+ motor neurons): less sensitive
Compound: O=C(N/N=C/c1ccc([N+](=O)[O-])o1)c1ccc(O)cc1 [NFX, (E)-4-hydroxy-N′-((5-nitrofuran-2-yl)methylene)benzohydrazide]
effect on glutamate-induced caspase activation ([3]; control motor neurons): no effect
